Reference: patent publication US7361681B2, “Method of treating amytrophic lateral sclerosis using melatonin” (SYGNIS Bioscience GmbH & Co. KG, priority 2003, dated 2008)
Several values for one entry are separate records, joined by “and”; a condition that tells them apart may be missing. Equal entries are not always repeated.

How the values were obtained:
[1] = cited from earlier work
ALS patients = assay: pilot program of chronic high-dose melatonin in ALS patients; format: in vivo, human
Text: Three ALS patients with an estimated onset of disease 2-4 yr previously, were included in a pilot program in Göttingen, set up to explore potential effects and side-effects of chronic high-dose melatonin in this condition. Intraindividual follow-up (upon entering the study, and after 1, 2, 6, 9 and 13 months of treatment thus far) included physical examination/clinical rating scales (ALS functional rating scale, ALSFRS), pulmonary function test, EMG-NCV, routine laboratory parameters, psychological rating scales, as well as magnetic resonance imaging and MR spectroscopy. Patients received 30-60 mg of melatonin as an oral slow release formulation in the late evening. In addition, they continued their “regular medication” in the morning and at noon (RIUZOLE® 50-100 mg, vitamins C and E, creatine, […]).

[2] = 30-60 mg melatonin oral slow release in the late evening, up to 13 months

Procedure for SODG93A-transgenic mice: Rotarod failure is defined to start when mice are no longer able to stay in the rotarod for more than 300 sec (=early disease state).
Shown are days after score 1 (abnormal hindlimb reflex or tremor in at least one extremity or asymmetrical gait) to score 4 (endpoint criteria/death).
Melatonin was continuously applied via drinking water (0.5 mg/ml of water containing 1% of ethanol to enable a saturated solution of melatonin) starting on day 28 of life and continued until death. The vehicle control received water containing 1% of ethanol.

For COc1ccc2[nH]cc(CCNC(C)=O)c2c1 [melatonin, N-acetyl-5-methoxytryptamine], the “crossing of the blood-brain barrier” value ([1]; in vivo) is listed as “readily crosses”, the “duration of high plasma levels” value ([1]; slow release preparations) is listed as “about 6 hr” and the “side effects reported or detected” value (ALS patients; [2]) is listed as “No side effects”. For the same compound, the signs of fatigue (ALS patients; [2]) was “no signs of fatigue”, the “tolerability over the entire observation period” value (ALS patients; 30-60 mg melatonin oral slow release in the late evening, up to 13 months, plus regular medication) was “well tolerated” and the “clinical laboratory parameters (blood cell count, electrolytes, liver enzymes, creatinine, CRP etc.) during melatonin treatment” value (ALS patients; 30-60 mg melatonin oral slow release nightly) was “did not show alterations”. For the same compound, the “clinical rating scale (ALSFRS) one year later” value (ALS patients; three patients, 30-60 mg melatonin oral slow release nightly) was 22 and 11 and 20, the “clinical rating scale (ALSFRS) at the start of the trial” value (ALS patients; three patients, baseline) was 34 and 25 and 31 and the “survival and course of disease (rotarod performance, progression of paresis, weight loss)” value (SODG93A-transgenic mice; 0.5 mg/ml in drinking water with 1% ethanol, from day 28 of life until death) was “significant improvement”. The “adverse effects of systemic melatonin” value (SODG93A-transgenic mice; 0.5 mg/ml in drinking water, application of several months) was “No adverse effects”, the “days from rotarod failure (no longer able to stay more than 300 sec) to death, versus vehicle” value (SODG93A-transgenic mice; SODG93A mice, n=9-12 per group, FIG. 1) was “significantly more” and the “days from clinical score 1 to score 4 (endpoint criteria/death), versus vehicle” value (SODG93A-transgenic mice; SODG93A mice, n=9-12 per group, FIG. 2) was “significantly more”.
